Experiments:
SIRT1 = SIRT1 abundance in ARPE-19 cells under oxidative stress; type: cell-based; details: ARPE-19 / human RPE cells confronted with OS
Source text: FIG. 10. (A) Effect of NPD1 and VLC-PUFA C32:6 and C34:6 in mediating upregulation of SIRT1 in ARPE-19 cells. (B) Quantification of SIRT1 upregulation by NPD1, C32:6 and C34:6. SIRT1 (Sirtuin1) belongs to a family of highly conserved proteins linked to caloric restriction beneficial outcomes and aging by regulating energy metabolism, genomic stability and stress resistance. SIRT1 is a potential therapeutic target in several diseases including cancer, diabetes, inflammatory disorders, and neurodegenerative diseases or disorders. Elovanoids induce cell survival involving the upregulation of the Bcl2 class of survival proteins and the downregulation of pro-apoptotic Bad and Bax under oxidative stress (OS) in RPE cells. […] As a consequence, remarkable cell survival takes place. This target of elovanoids might be relevant to counteract consequences of several diseases associated with SIRT1.
FIG. 10—(A) Effect of NPD1 and VLC-PUFA C32:6 and C34:6 in mediating upregulation of SIRT1 in ARPE-19 cells. (B) Quantification of SIRT1 upregulation by NPD1, C32:6 and C34:6. SIRT1 (Sirtuin1) belongs to a family of highly conserved proteins linked to caloric restriction beneficial outcomes and aging by regulating energy metabolism, genomic stability and stress resistance. […]

[1] = tested on: human retinal pigment epithelial (RPE) cells deficient in 15-LOX-D1; test: Oxidative stress (OS) induced apoptosis / cell death in 15-LOX-1-deficient human RPE cells; type: cell-based
Source text: (§1) FIG. 4. (A) Cytoprotective effects of NPD1 like compounds on OS induced apoptosis. The results shown in this figure compare the cytoprotective capacities of long chain polyunsaturated fatty acids (VLC-PUFA), elovanoids ELV1 and ELV2, and neuroprotectin D1 (NPD1) in human retinal pigment epithelial (RPE) cells deficient in 15-LOX-D1 by measuring the protection of cell deaths induced by oxidative stress (OS) by these compounds. […] (B) Elovanoid precursors protect human retinal pigment epithelial cells deficient in 15-LOX-1, unlike DHA, from oxidative stress conditions.
FIG. 5. (A) Effect of PD146176 on VLC-PUFA-inhibited apoptosis induced by OS in ARPE-19 cells. […] It is evident that 32:6 and 34:6 LCAF were able to induce a substantial amount (55 and 48% respectively) of neuroprotection compared to PD 146176 (22%) when the stressed cells were treated with 5 μm of 15-LOX-D1 inhibitor. It can be concluded that since PD146176 is the inhibitor of 15-lipooxygenase enzyme, it might be protecting the stressed RPE cells by accumulating neuroprotective agents inside the cells. (B) Comparison of cytoprotective capacities of NPD1, C32:6 and C34:6 VLC-PUFA on oxidative stress-induced apoptosis in 15-LOX-1 cells. Shown here is the comparison of neuroprotection in a 15-LOX-1-deficient cell line under oxidative stress with 32:6 and 34:6 VLC-PUFA along with NPD1. 32:6 and 34:6 LCAF were able to induce neuroprotection (45% and 40% respectively), as compared to oxidative stress (90%) under this condition. (C) Concentration dependent cytoprotection by C32:6 and C34:6 VLC-PUFA in oxidative-stress induced ARPE-19 cells. A concentration (50-500 nM) kinetic of cytoprotection induced by LCAF 32:6 and 34:6 in RPE cell culture under OS was shown here. […] We decided to use 250 nM concentrations of 32:6 and 34:6 LCAF in subsequent experiments. (D) Selected images of alive and dead cells from this study (control, OS, treatment with C32:6).
as §1, with “Evidence of cytoprotection by 32.6 and 34.6 VLC-PUFA in oxidative-stress induced ARPE-19 cells as detailed in (FIG. 4): (A) Cytoprotective” for “FIG. 4. (A) Cytoprotective”, “capacities of very long chain” for “capacities of long chain”
FIG. 5—(A) Effect of PD146176 on VLC-PUFA inhibited apoptosis induced by OS in ARPE-19 cells. […] It is evident that 32:6 and 34:6 LCAF were able to induce a substantial amount (55 and 48% respectively) of neuroprotection compared to PD 146176 (22%) when the stressed cells were treated with 5 μm of 15-LOX-D1 inhibitor. It can be concluded that since PD146176 is the inhibitor of 15-lipooxygenase enzyme, it might be protecting the stressed RPE cells by accumulating neuroprotective agents inside the cells. (B) Comparison of cytoprotective capacities of NPD1, C32:6 and C34:6 VLC-PUFA on oxidative stress-induced apoptosis in 15-LOX-1 cells. Shown here is the comparison of neuroprotection in a 15-LOX-1-deficient cell line under oxidative stress with 32:6 and 34:6 VLC-PUFA along with NPD1. 32:6 and 34:6 VLC-PUFA were able to induce neuroprotection (45% and 40% respectively), as compared to oxidative stress (90%) under this condition. (C) Concentration dependent cytoprotection by C32:6 and C34:6 VLC-PUFA in oxidative-stress induced ARPE-19 cells. A concentration (50-500 nM) kinetic of cytoprotection induced by VLC-PUFA 32:6 and 34:6 in RPE cell culture under OS was shown here. […] We decided to use 250 nM concentrations of 32:6 and 34:6 VLC-PUFA in subsequent experiments. […]

Structure (SMILES) | effect on SIRT1 abundance (FIG. 10) (SIRT1) | neuroprotection (FIG. 5B) ([1]; 15-LOX-1-deficient cell line under oxidative stress, compared to oxidative stress (90%)) [%] | protection against cell death under oxidative stress conditions (FIG. 4B) ([1]; 15-LOX-D1 cells under oxidative stress) | activity against OS relative to the related VLC-PUFA (FIG. 4) ([1]; as sodium salts or methyl esters)
CC/C=C\C/C=C\C/C=C\C/C=C\C/C=C\C/C=C\CCCCCCCCCCCCCCC(=O)O [C34:6] | mediate the upregulation of SIRT1 | 40 | protect against cell death | 
CC/C=C\C[C@H](O)\C=C/C=C/C=C/[C@H](O)C/C=C\C/C=C\CCCCCCCCCCCCCCC(=O)O [ELV2, (16Z,19Z,22R,23E,25E,27Z,29S,31Z)-22,29-dihydroxytetratriaconta-16,19,23,25,27,31-hexaenoic acid] |  |  |  | more potent activity against OS than the related VLC-PUFA

Source: patent US12565467B2, “Compounds, compositions, and methods for the treatment of inflammatory, degenerative, and neurodegenerative diseases” (Board of Supervisors of Louisiana State University and …, priority 2015, dated 2026)
